SMILES strings stand for the structures. Where two headings read alike, the source gives them in different places.

One series concerns myzus persicae. To be noted: for numbers of death/total numbers: 24 h.
In another series the test system is aphis gossypii. To be noted: 24 h.
A further series deals with hyalopterus pruni. The settings on record: 24 h.

As to `O=[N+]([O-])N=C(NCc1ccc(Cl)nc1)NN=Cc1ccc(F)cc1` [Compound 114], in the series with bemisia tabaci gennadius (in vivo), the “mortality(%) bemisia tabaci gennadius (500 μg/mL)” value came out at 2.04%. For the same compound, the “mortality(%) myzus persicae (600 μg/mL)” value with myzus persicae (in vivo) worked out at 72.3%. Further, in the series on asparagus caterpillar (in vivo), the “mortality(%) asparagus caterpillar (500 μg/mL)” value amounted to 70%. The “mortality(%) Helicoverpa armigera (500 μg/mL)” value in the series on Helicoverpa armigera (in vivo) was 40%.

As for `C=CCNC(=N[N+](=O)[O-])NN=Cc1ccccc1Cl` [Compound 93], the “numbers of death/total numbers” value is 178/186 in the series with aphis gossypii (3.13 μg/mL); 124/124 with aphis gossypii (12.5 μg/mL); 138/138 in the series on aphis gossypii (50 μg/mL); 102/112 with hyalopterus pruni (25 μg/mL); 104/108 with hyalopterus pruni (50 μg/mL); 103/103 in the series with hyalopterus pruni (100 μg/mL). Besides, the “numbers of death/total numbers” value is given as 110/110 in the series on hyalopterus pruni (200 μg/mL); 103/103 in the series with hyalopterus pruni (400 μg/mL); 112/112 in the series on myzus persicae (25 μg/mL); 94/98 with myzus persicae (50 μg/mL); 104/104 with myzus persicae (100 μg/mL); 114/114 in the series with myzus persicae (200 μg/mL). For the same compound, the “numbers of death/total numbers” value in the series with myzus persicae (400 μg/mL) is listed as 93/93. In the series with myzus persicae (in vivo), the “mortality(%) myzus persicae (600 μg/mL)” value is on record as 96.0%. In addition, the “mortality(%) asparagus caterpillar (500 μg/mL)” value in the series with asparagus caterpillar (in vivo) amounted to 70%. For the same compound, in the series on Helicoverpa armigera (in vivo), the “mortality(%) Helicoverpa armigera (500 μg/mL)” value is recorded as 40%.

Regarding `O=[N+]([O-])N=C(NCc1ccc(Cl)nc1)NN=Cc1ccccc1` [Compound 110], the “mortality(%) bemisia tabaci gennadius (500 μg/mL)” value in the series with bemisia tabaci gennadius (500 μg/mL, 48 hours) worked out at 6.67%. Further, in the series on myzus persicae (600 μg/mL), the “mortality(%) myzus persicae (600 μg/mL)” value came to 92.8%. Moreover, the “mortality(%) asparagus caterpillar (500 μg/mL)” value with asparagus caterpillar (500 μg/mL, 48 hours) is on record as 30%. The “mortality(%) Helicoverpa armigera (500 μg/mL)” value in the series with Helicoverpa armigera (500 μg/mL, 48 hours) was determined as 0%.

Regarding `O=[N+]([O-])N=C(NCc1ccc(Cl)nc1)NN=Cc1ccco1` [Compound 115], the “mortality(%) bemisia tabaci gennadius (500 μg/mL)” value in the series on bemisia tabaci gennadius (in vivo) came out at 9.30%. In the series on myzus persicae (in vivo), the “mortality(%) myzus persicae (600 μg/mL)” value is on record as 86.0%. The “mortality(%) asparagus caterpillar (500 μg/mL)” value with asparagus caterpillar (in vivo) turned out to be 80%. Moreover, the “mortality(%) Helicoverpa armigera (500 μg/mL)” value with Helicoverpa armigera (in vivo) is recorded as 10%.

On to `CCCCCCC=NNC(=N[N+](=O)[O-])NCc1ccc(Cl)nc1` [Compound 50], for which the “numbers of death/total numbers” value in the series with aphis gossypii (3.13 μg/mL) is on record as 156/157; with aphis gossypii (12.5 μg/mL), 150/150; with aphis gossypii (50 μg/mL), 245/245; in the series on hyalopterus pruni (25 μg/mL), 104/108; with hyalopterus pruni (50 μg/mL), 98/102; in the series with hyalopterus pruni (100 μg/mL), 101/101. Further, the “numbers of death/total numbers” value with hyalopterus pruni (200 μg/mL) is 110/110; in the series with hyalopterus pruni (400 μg/mL) it was 102/102; in the series with myzus persicae (25 μg/mL), 78/78; in the series with myzus persicae (50 μg/mL) it was 91/92; in the series with myzus persicae (100 μg/mL) it was 87/87; in the series with myzus persicae (200 μg/mL), 103/107. In addition, the “numbers of death/total numbers” value with myzus persicae (400 μg/mL) is reported as 96/96. In the series on myzus persicae (in vivo), the “mortality(%) myzus persicae (600 μg/mL)” value came to 100%. For the same compound, the “mortality(%) asparagus caterpillar (500 μg/mL)” value with asparagus caterpillar (in vivo) turned out to be 0%. Further, the “mortality(%) Helicoverpa armigera (500 μg/mL)” value in the series on Helicoverpa armigera (in vivo) was 20%.

Turning to `O=[N+]([O-])N=C(NCc1ccc(Cl)nc1)NN=Cc1ccccc1Cl` [Compound 111], the “mortality(%) bemisia tabaci gennadius (500 μg/mL)” value in the series on bemisia tabaci gennadius (in vivo) is recorded as 13.89%. Further, the “mortality(%) myzus persicae (600 μg/mL)” value in the series on myzus persicae (in vivo) came to 22.0%. For the same compound, the “mortality(%) asparagus caterpillar (500 μg/mL)” value with asparagus caterpillar (in vivo) came to 40%. In addition, the “mortality(%) Helicoverpa armigera (500 μg/mL)” value with Helicoverpa armigera (in vivo) was determined as 0%.

`CCCCC=NNC(=N[N+](=O)[O-])NCc1ccc(Cl)nc1` [Compound 56]: the “numbers of death/total numbers” value with aphis gossypii (3.13 μg/mL) is on record as 121/157; with aphis gossypii (12.5 μg/mL), 136/164; with aphis gossypii (50 μg/mL), 166/178; with hyalopterus pruni (25 μg/mL), 100/104; with hyalopterus pruni (50 μg/mL), 96/101; with hyalopterus pruni (100 μg/mL) it was 121/121. In addition, the “numbers of death/total numbers” value is reported as 101/101 with hyalopterus pruni (200 μg/mL); 103/103 in the series on hyalopterus pruni (400 μg/mL); 104/104 in the series with myzus persicae (25 μg/mL); 96/99 with myzus persicae (50 μg/mL); 149/149 with myzus persicae (100 μg/mL); 81/81 in the series with myzus persicae (200 μg/mL). In addition, in the series with myzus persicae (400 μg/mL), the “numbers of death/total numbers” value is listed as 77/77. In the series with myzus persicae (in vivo), the “mortality(%) myzus persicae (600 μg/mL)” value came out at 100%. Besides, the “mortality(%) asparagus caterpillar (500 μg/mL)” value in the series with asparagus caterpillar (in vivo) was found to be 20%. Moreover, the “mortality(%) Helicoverpa armigera (500 μg/mL)” value with Helicoverpa armigera (in vivo) came to 70%.

With `CNC(=N[N+](=O)[O-])NN=Cc1ccc(OC)cc1` [Compound 121], the “mortality(%) bemisia tabaci gennadius (500 μg/mL)” value with bemisia tabaci gennadius (in vivo) is recorded as 16.95%.

For `COc1ccc(C=NNC(=N[N+](=O)[O-])NCc2ccc(Cl)nc2)cc1` [Compound 112], the “mortality(%) bemisia tabaci gennadius (500 μg/mL)” value in the series with bemisia tabaci gennadius (in vivo) is 3.77%. In addition, the “mortality(%) myzus persicae (600 μg/mL)” value with myzus persicae (in vivo) amounted to 54.4%. In addition, in the series on asparagus caterpillar (in vivo), the “mortality(%) asparagus caterpillar (500 μg/mL)” value came out at 90%. Moreover, in the series with Helicoverpa armigera (in vivo), the “mortality(%) Helicoverpa armigera (500 μg/mL)” value was found to be 10%.
